“And” between values parts separate entries of the source, which are not always exact repeats. Equal values may be shown once.
Tested on: 855422-203-R-J1-PDC complex spheroid viability
Assay: Anticancer human tumor 855422-203-R-J1-PDC patient-derived bladder carcinoma cell line growth inhibition
Settings: for viability, T/C: stronger effect = lower value; active = viability on the fitted dose curve at most 10% of control; inactive = the rest
Source text: Multicellular complex tumor spheroid response to LSD1 Inhibitor Iadademstat in combination with a variety of drugs and investigational agents in selected tumor cell lines
The current study was undertaken to assess response to LSD1 inhibitors in combination with standard-of-care drugs and investigational agents in solid tumor complex spheroid models as well as in the K-562 leukemia. Complex spheroids include a stromal component modeled by human endothelial cells (HUVEC) and fibroblasts modeled by human mesenchymal stem cells (MSCs). The concentration ranges selected for each drug and investigational agent were based upon clinically achievable concentrations if the clinical Cmax of the agent was known.
Compounds. The drugs and investigational agents used in this study are listed on Table 1. All of the agents used, including staurosporine (NSC755774) and gemcitabine (NSC613327), were obtained from the Developmental Therapeutics Program, NCI. FDA-approved anticancer drugs are available from the NCI at http://dtp.nci.nih.gov/branches/dscb/oncology_drugset_explanation.html. Drugs and investigational agents were >95% pure by proton nuclear magnetic resonance (NMR) and liquid chromatography/mass spectrometry (LC/MS). Stock solutions were prepared at 400x in DMSO, stored at -70 degrees C, and diluted in fresh medium prior to their use. The final concentration of DMSO in cell culture wells never exceeded 0.25% (v/v). The FDA-approved anticancer drug set is available from the Developmental Therapeutics Program at https://dtp.cancer.gov/organization/dscb/obtaining/available_plates.htm. All drugs and investigational agents were tested over a range starting from a high concentration at or near the clinical Cmax and decreasing in half-log increments. If the clinical Cmax for an agent had not been determined, the highest concentration tested was 10 microM.
Cell Lines. The patient-derived cancer cell (PDC) lines: 292921-168-R-J2-PDC, K24384-001-R-PDC, and 521955-158-R2-J5-PDC pancreatic carcinomas, 556581-035-R-J1 ovarian carcinoma, 324938-238-R-J1-PDC, 855422-203-R-J1-PDC and 883617-216-R-J1-PDC urothelial bladder carcinomas, 743489-274-T-PDC renal cell carcinoma, 138582-R-J1 Merkel cell tumor, K60290-347-R-J1 and K57222-313-R-J1-PDC glioblastomas, 653999-131-R-J2-PDC, LG0703-F948-PDC, and 349418-098-R-PDC non-small cell lung carcinomas, 885512-296-R-J2-PDC, 171881-019-R-J1-PDC breast carcinomas and 186277-243-T-J2-PDC and 233499-124-R-J2-PDC colon carcinomas were obtained from the NCI Patient-Derived Models Repository (PDMR, https://pdmr.cancer.gov). The established cell lines NCI/ADR-RES (RRID:CVCL_14520 and OVCAR-5 (RRID:CVCL_1628) ovarian carcinomas, 786-O (RRID:CVCL_1051) and A498 (RRID:CVCL_A498) renal cell carcinoma, NCI-H211 (ATCC, cat. CRL-5824; RRID:CVCL_1529), NCI-H196 (ATCC, cat. CRL-5823, RRID:CVCL_1509), SW 1271 (ATCC, cat. CRL-2177, RRID:CVCL_1716) and NCI-H1876 (ATCC, cat. CRL-5902, RRID:CVCL_1503) small cell lung carcinomas, MDA-MB-231 (RRID:CVCL_0062) and MDA-MB-468 (RRID:CVCL_0419)breast carcinomas (10-12). Pooled donor human umbilical vein endothelial cells (HUVEC, Lonza, cat. CC-2519) and human mesenchymal stem cells (hMSC, Lonza, cat. PT-2501) were purchased from Lonza (Walkersville, MD).
Cell Culture. All cells were maintained in an incubator at 37 degrees C and 5% CO2 with 95% humidity. The PDC lines were cultured according to standard operating procedures established by the NCI PDMR (https://pdmr.cancer.gov). Briefly all PDCs were thawed and cultured in Matrigel-coated flasks prepared with a working solution of 1X Ham's F-12 nutrient mix, without supplementation (Invitrogen, Waltham, MA, cat. 11765054), 100 U/mL penicillin-streptomycin (Invitrogen, cat. 15140122), and 2.5% Matrigel (Corning Inc., Corning, NY, cat. 354248) for the first three passages. […]

[1] = curve of first compound, second compound 0.1 µM
[2] = curve of first compound, second compound 0.316 µM
[3] = curve of first compound, second compound 1 µM
[4] = curve of first compound, second compound 3.16 µM
[5] = curve of first compound, second compound 10 µM
[6] = second compound 0.1 µM, first compound 0.0316 µM
[7] = second compound 0.1 µM, first compound 0.1 µM
[8] = second compound 0.1 µM, first compound 0.316 µM
[9] = second compound 0.1 µM, first compound 1 µM
[10] = second compound 0.1 µM, first compound 3.16 µM
[11] = second compound 0.1 µM, first compound 10 µM
[12] = second compound 0.316 µM, first compound 0.0316 µM
[13] = second compound 0.316 µM, first compound 0.1 µM
[14] = second compound 0.316 µM, first compound 0.316 µM
[15] = second compound 0.316 µM, first compound 1 µM
[16] = second compound 0.316 µM, first compound 3.16 µM
[17] = second compound 0.316 µM, first compound 10 µM
[18] = second compound 1 µM, first compound 0.0316 µM
[19] = second compound 1 µM, first compound 0.1 µM
[20] = second compound 1 µM, first compound 0.316 µM
[21] = second compound 1 µM, first compound 1 µM
[22] = second compound 1 µM, first compound 3.16 µM
[23] = second compound 1 µM, first compound 10 µM
[24] = second compound 3.16 µM, first compound 0.0316 µM
[25] = second compound 3.16 µM, first compound 0.1 µM
[26] = second compound 3.16 µM, first compound 0.316 µM
[27] = second compound 3.16 µM, first compound 1 µM
[28] = second compound 3.16 µM, first compound 3.16 µM
[29] = second compound 3.16 µM, first compound 10 µM
[30] = second compound 10 µM, first compound 0.0316 µM
[31] = second compound 10 µM, first compound 0.1 µM
[32] = second compound 10 µM, first compound 0.316 µM
[33] = second compound 10 µM, first compound 1 µM
[34] = second compound 10 µM, first compound 3.16 µM
[35] = second compound 10 µM, first compound 10 µM
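Note: drug exposure lasted 7 days starting on day 3 after seeding.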
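Throughout, for viability, T/C: luminescence viability as percent of DMSO vehicle wells = 100%.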

CC(C)c1c(-c2ccccc2)nc2c(C#N)c[nH]n2c1=O + NC1CCC(NC2CC2c2ccccc2)CC1
inactive: viability, T/C [6] 82.4% | viability, T/C [7] 88% | viability, T/C [8] 92.9% | viability, T/C [9] 87.7% | viability, T/C [10] 85.3% | viability, T/C [11] 74.7% | viability, T/C [12] 93.2% | viability, T/C [13] 85.3% | viability, T/C [14] 93.4% | viability, T/C [15] 83.3% | viability, T/C [16] 77.1% | viability, T/C [17] 74% | viability, T/C [18] 88.6% | viability, T/C [19] 92.2% | viability, T/C [20] 85.9% | viability, T/C [21] 86.7% | viability, T/C [22] 80.1% | viability, T/C [23] 75.3% | viability, T/C [24] 89.1% | viability, T/C [25] 80.4% | viability, T/C [26] 81.1% | viability, T/C [27] 77.1% | viability, T/C [28] 79.9% | viability, T/C [29] 80.2% | viability, T/C [30] 82.9% | viability, T/C [31] 91.7% | viability, T/C [32] 84.4% | viability, T/C [33] 74.6% | viability, T/C [34] 69.6% | viability, T/C [35] 73.4%
> 10 µM: IC50 [1] | IC50 [2] | IC50 [3] | IC50 [4] | IC50 [5]

Nc1ccn(C2OC(CO)C(O)C2(F)F)c(=O)n1 (configuration not stated)
0.0055 µM and 0.00442 µM: IC50 (curve of compound)
inactive: viability, T/C (compound 0.000949 µM) 90.2% and 96.5% | viability, T/C (compound 0.003 µM) 59.8% and 55% | viability, T/C (compound 0.00949 µM) 37.2% and 35.9% | viability, T/C (compound 0.03 µM) 36.1% and 29.9% | viability, T/C (compound 0.0949 µM) 29.3% and 22% | viability, T/C (compound 0.3 µM) 19.9% and 16.3%

CC(C)c1c(-c2ccccc2)nc2c(C#N)c[nH]n2c1=O + NC1CC1c1ccc(-c2cccc(O)c2)cc1
> 10 µM: IC50 [1] | IC50 [2] | IC50 [3] | IC50 [4] | IC50 [5]
inactive: viability, T/C [6] 96.8% | viability, T/C [7] 109% | viability, T/C [8] 93.8% | viability, T/C [9] 95.7% | viability, T/C [10] 95.5% | viability, T/C [11] 86.2% | viability, T/C [12] 98.2% | viability, T/C [13] 94.7% | viability, T/C [14] 99.7% | viability, T/C [15] 87.4% | viability, T/C [16] 88% | viability, T/C [17] 83.6% | viability, T/C [18] 96.5% | viability, T/C [19] 102% | viability, T/C [20] 93.6% | viability, T/C [21] 86.2% | viability, T/C [22] 90.5% | viability, T/C [23] 80.4% | viability, T/C [24] 98.8% | viability, T/C [25] 96% | viability, T/C [26] 94.2% | viability, T/C [27] 88.9% | viability, T/C [28] 86.1% | viability, T/C [29] 83.7% | viability, T/C [30] 86.1% | viability, T/C [31] 86.6% | viability, T/C [32] 88.7% | viability, T/C [33] 86.9% | viability, T/C [34] 81.3% | viability, T/C [35] 73.9%

Nc1ncn(C2CC(O)C(CO)O2)c(=O)n1 (configuration not stated) + NC1CC1c1ccc(-c2cccc(O)c2)cc1
> 1 µM: IC50 [1] | IC50 [2] | IC50 [3] | IC50 [4] | IC50 [5]
inactive: viability, T/C (second compound 0.1 µM, first compound 0.00316 µM) 104% | viability, T/C (second compound 0.1 µM, first compound 0.01 µM) 98.2% | viability, T/C [6] 99.7% | viability, T/C [7] 106% | viability, T/C [8] 93.5% | viability, T/C [9] 92.4% | viability, T/C (second compound 0.316 µM, first compound 0.00316 µM) 104% | viability, T/C (second compound 0.316 µM, first compound 0.01 µM) 95% | viability, T/C [12] 96.5% | viability, T/C [13] 91.6% | viability, T/C [14] 90.3% | viability, T/C [15] 88.7% | viability, T/C (second compound 1 µM, first compound 0.00316 µM) 84.9% | viability, T/C (second compound 1 µM, first compound 0.01 µM) 88.6% | viability, T/C [18] 89.2% | viability, T/C [19] 93.5% | viability, T/C [20] 91.5% | viability, T/C [21] 86.7% | viability, T/C (second compound 3.16 µM, first compound 0.00316 µM) 91.6% | viability, T/C (second compound 3.16 µM, first compound 0.01 µM) 83.3% | viability, T/C [24] 88% | viability, T/C [25] 86.6% | viability, T/C [26] 89.5% | viability, T/C [27] 84.2% | viability, T/C (second compound 10 µM, first compound 0.00316 µM) 74.7% | viability, T/C (second compound 10 µM, first compound 0.01 µM) 76.8% | viability, T/C [30] 84.2% | viability, T/C [31] 82% | viability, T/C [32] 94.8% | viability, T/C [33] 85.2%

Reference: PubChem BioAssay AID1918943 (Molecular Pharmacology Branch, DTP, NCI, 2023)
